Assay results taken from article PMC12040169 (PLOS Biology, 2025).

Experiment: in vitro
Conditions: human, hela cells, % viability

SMILES | viability at 28.5 h, 10 µM [%]
OCCN1CCN(c2nccnc2-c2ccncc2)CC1 [CBK038084] | 89.2
O=C1c2ccccc2C(=O)N1Cc1nc2ccccc2c(=O)n1CCN1CCOCC1 [CBK268472] | 105
COCC(=O)N1CCN(Cc2cccc(-c3ccccn3)c2)CC1 [CBK304035] | 91.3
Fc1ccc(N2CCN(Cc3cccc(OCc4ccccc4)c3)CC2)cc1 [CBK261916] | 94.6
CC(C)(C)CC(=O)O/N=C(\N)c1ccccn1 [CBK265779] | 105
Cc1ccc(C2(O)CCN(CCNC(=O)C3CCCC3)CC2)cc1 [CBK282606] | 93.1
C=CCn1c(NCc2ccco2)nc2ccccc21 [CBK269751] | 87.9
Cc1ccc(C(=O)NC(C)c2nc3ccccc3n2Cc2ccc(C(=O)O)o2)cc1 (stereo not drawn) [CBK295159] | 107
CCOc1ccc(-c2ccc(C#N)c(=S)[nH]2)cc1 [CBK288470] | 88.2
COc1cc(OC)cc(C(=O)N2CCC3(CC2)CC(=O)c2ccc(OCCN(C)C)cc2O3)c1 [CBK169008T] | 92.8
Cc1nn(-c2ccccn2)c(N)c1C1CC(=O)N(c2ccc(C(=O)O)cc2)C1=O (stereo not drawn) [CBK291180] | 95.2
NC(=O)CN1CCN(c2nccnc2OCc2ccc(Cl)c(Cl)c2)CC1 [CBK083079T] | 111
CCC(O)CNC(=O)c1coc(COc2ccc3sc(C)nc3c2)n1 (stereo not drawn) [CBK307700] | 90.8
O=C(NC(=O)N1CCSC1)c1c(Cl)cccc1Cl [CBK028794] | 85.3
CN(C)CCNc1nc(-c2cccc3ncccc23)cnc1N [CBK063693] | 102
Cc1ccccc1-c1nnc2n1CCCCC2 [CBK200076A] | 108
CCC(=O)NC(NC(=S)Nc1cccc2cccnc12)C(Cl)(Cl)Cl (stereo not drawn) [CBK261027] | 96.1
O=S(=O)(Nc1nc(-c2c(F)cccc2Cl)cs1)c1cc(Cl)c(Cl)s1 [CBK200025] | 92.8
Cn1c(=O)n(C)c2cc(-c3nc4ccccc4c(=O)[nH]3)ccc21 [CBK287887] | 98.5
O=C(O)c1ccc(COc2ccc(/C=C3\SC(=S)N(Cc4cccnc4)C3=O)cc2Cl)cc1 [CBK264672] | 91.9
COc1ccccc1/C=N/NC(=O)C(=O)NCc1ccccn1 [CBK262286] | 93.7
Nc1ncc(-c2cccc(O)c2)nc1-c1ccc(CCC(=O)O)cc1 [CBK064135] | 103
c1cncc(COc2cncc(OC3CCN(Cc4ccc5c(c4)OCO5)C3)n2)c1 (stereo not drawn) [CBK084458] | 88.9

SMILES | viability at 28.5 h, 10 µM [%]
NC(=O)[C@H]1C[C@@H](O)[C@H](O)[C@H]2[C@@H]1S/C(=N\c1ccc(Cl)cc1)N2Cc1ccccc1 [CBK288940] | 94.9
CC(=O)N1CCc2c([nH]c3ccc(Br)cc23)C12CCN(CCCC#N)CC2 [CBK039724] | 83.2
CCCOC1CCCN(C(=O)c2cc(Cl)c[nH]2)C1 (stereo not drawn) [CBK304802] | 97.5
CCNC(=O)N1CC2(CCN(Cc3ccc(OC(F)(F)F)cc3)CC2)c2ccccc21 [CBK126688] | 115
C=Cn1ncc(CN2CCC3(O)CCCCC3C2)c1C (stereo not drawn) [CBK283302] | 94.5
Cn1ccnc1C(O)(c1ccccc1)c1nccn1C [CBK262084] | 97.6
O=C(C1=C(O)C(=O)N(CCN2CCOCC2)C1c1cccc(Br)c1)c1ccco1 (stereo not drawn) [CBK264490] | 94.4
CC1=C(C(=O)N2CCOCC2)C(c2ccc(Cl)cc2)NC(=O)N1c1ccc(C(=O)O)cc1 (stereo not drawn) [CBK296999] | 93.1
CCc1nc2ccc(C(=O)N3CCCCC3)cn2c1N(CC)Cc1ccc2c(c1)OCCO2 [CBK146903] | 100
N#CC1CCC(CNC(=O)c2sc3ccccc3c2Cl)CC1 (stereo not drawn) [CBK010864] | 106
Cc1ccc(NC(=O)CC2Nc3ccccc3OC2=O)cc1C (stereo not drawn) [CBK270214] | 81.5
O=C(/C=C/c1c(F)cccc1Cl)Nc1nnn[nH]1 [CBK265447] | 102
O=C(O)c1ccc(S(=O)(=O)c2ccc3c(c2)C(=O)N(NC(=O)c2ccc(O)cc2)C3=O)cc1 [CBK264229] | 102
Cc1ccc(NC(=O)C2CCCN2S(=O)(=O)c2ccc(F)cc2)cc1F (stereo not drawn) [CBK110164] | 91.6
COc1ccc(C(=O)N2CCC3(CCCN(C(=O)c4ccc5ncccc5c4)C3)C2)cc1OC (stereo not drawn) [CBK131656] | 92.4
O=C(NC(Cc1cccs1)c1nccs1)c1ccncc1 (stereo not drawn) [CBK285134] | 93.9
Cc1cnccc1-c1c[nH]nc1C1CCCN1C(=O)c1ccccc1 (stereo not drawn) [CBK285499] | 104
CCn1c(=O)n(CC(=O)N(C)C)c2cccnc21 [CBK282299] | 89.1
O=C(NCCCN1CCOCC1)c1cnn2c(-c3ccccc3)cc(-c3ccccc3)nc12 [CBK263046] | 79.9
COc1ccc2c(c1)C=C(/C=C/C1=CCN(C)CC1)CO2 [CBK283818] | 81.1
O=C(O)c1ccccc1S(=O)(=O)CC(=O)N1CCCCC1 [CBK287180] | 89.1
Cc1ccc(NS(=O)(=O)c2c(Br)sc3ccnc(N4CCN(C)CC4)c23)cc1 [CBK034654C] | 103
FC(F)CN1CCN(Cc2ccc(Oc3cnccn3)cc2)CC1 [CBK306399] | 101

SMILES | viability at 28.5 h, 10 µM [%]
CC(=O)c1ccc(-c2nccnc2NCc2cccnc2)s1 [CBK037050] | 99.5
C=C(C)Cn1c(SCC(C)C)nnc1-c1cnccc1C [CBK200075T] | 96
CCNC(=S)N1CCN(CCNC=C2C(=O)CC(C)(C)CC2=O)CC1 [CBK263661] | 90.1
O=[N+]([O-])c1cnc(NS(=O)(=O)c2ccc(-c3ccon3)s2)s1 [CBK067543] | 95.2
COc1cccc(C2(NC(=O)Cn3nc(C)cc3C)CCCC2)c1 [CBK283648] | 98.1
CCCCNc1nnc(-c2nn(C)cc2Cl)s1 [CBK288021] | 79.4
COc1ccc(NC(=O)CSc2nc(O)cc(-c3ccccc3)n2)cc1OC [CBK263657] | 96.1
C=C(C)CN1CCN(Cc2c[nH]nc2C(C)(C)C)CC1 [CBK282827] | 92.6
O=C(NCCc1ccncc1)c1cccs1 [CBK056969] | 107
COCCn1c(CO)nnc1[C@H]1C[C@@H](NC(=O)c2ncc(F)cc2F)C1 [CBK307458] | 106
CC(C)(C)c1csc(NC(=O)C2CC(=O)N(C3CCCC3)C2)n1 (stereo not drawn) [CBK175544] | 105
CS(=O)(=O)c1ccc(Nc2ccc3c(c2)COC2(CCN(C(=O)Cc4ccc(F)cc4F)C2)O3)cc1 (stereo not drawn) [CBK131948] | 90.8
CC(=O)c1ccc(NC(=O)CSc2ncccc2C(=O)O)cc1 [CBK299798] | 94.4
CCOC(=O)C1=C(CSc2nccn2C)NC(=O)NC1c1ccc2c(c1)OCO2 (stereo not drawn) [CBK268746] | 85.5
COc1ccc2c(ccn2CC(=O)NC[C@H]2CC[C@H](C(=O)O)CC2)c1 [CBK286687] | 110
Cc1cc(C)nc(Nc2n[nH]c(COc3ccccc3)n2)n1 [CBK268016] | 93.2
Cc1ccccc1C(=O)NCCNC(=O)c1nonc1N [CBK267677] | 103
CC(=O)Nc1cc(NC(C)=O)c(O)c(C(=O)O)c1 [CBK009871] | 88.6
Cn1ccnc1C1(O)CCN(C(=O)Nc2ccc(F)cc2)CC1 [CBK282277] | 97.4
Cc1csc(NC(=O)Cc2ccccc2F)n1 [CBK288252] | 84.3
Cc1cc(NC(=O)N2CCCN(CC3CCCCC3)CC2)no1 [CBK306239] | 99.9
O=C(O)CNS(=O)(=O)c1cc(Cl)c(Cl)cc1Cl [CBK266136] | 96.6
NC(=O)C[N+]1(CC#CC(O)(c2ccccc2)c2ccccc2)CCCC1 [CBK262703I] | 95.3

SMILES | viability at 28.5 h, 10 µM [%]
COc1ccc(C(O)CNC(C)C)c2c(C)c(C)oc12 (stereo not drawn) [CBK011885C] | 97
COc1ccc2c(c1)C1(CC(=O)N(CC(=O)N(C)C)C1=O)C(=O)N2CC(=O)c1ccccc1 (stereo not drawn) [CBK075913] | 96.9
CC(C)Nc1nccnc1Sc1cccs1 [CBK089490] | 123
Cc1ccc(-c2ccc(/C=C/c3cc(C(F)(F)F)nc(=O)[nH]3)o2)cc1Cl [CBK018169] | 103
c1cncc(COc2cc(N3CCCC3)ncn2)c1 [CBK115894] | 96.9
Cc1ccc(NC(=O)N2CCCC(C(=O)O)C2)cc1 (stereo not drawn) [CBK161371] | 89.5
CCOC(=O)c1c(NC(=O)Cn2nc([N+](=O)[O-])c(Cl)c2C)sc2c1CCC(C)C2 (stereo not drawn) [CBK263054] | 94.2
CCOC(=O)c1ccc(NS(=O)(=O)c2cc(Cl)ccc2Cl)cc1 [CBK077746] | 88.4
Ic1ccc(NCc2cn3ccccc3n2)cc1 [CBK058563] | 91.4
Cc1cc2nc(-c3cc(NC(=O)c4ccc(C)c([N+](=O)[O-])c4)ccc3O)oc2cc1C [CBK262779] | 89.1
CC(C)OC(=O)Cc1nc(CN2CCOC(c3ccc(F)cc3)C2)cs1 (stereo not drawn) [CBK305439] | 119
Cc1csc(C(Cc2ccsc2)NC(=O)CC2CCCO2)n1 (stereo not drawn) [CBK282227] | 92.1
CCC(CO)NC(=O)c1cnc(-c2cccc(C)c2)c(-c2ccc(OC)cc2)c1 (stereo not drawn) [CBK037460] | 101
Cn1nc(CN(Cc2ccccc2C(F)(F)F)C2CC2)[nH]c1=O [CBK306391] | 98.2
NCCCNc1ccc(-c2ccco2)cn1 [CBK036911] | 100
COc1ccc2[nH]c3c(=O)n(C)cnc3c2c1 [CBK025870] | 85.8
CCOc1ccc(C(N)CC(=O)O)cc1 (stereo not drawn) [CBK262933C] | 82.4
CC(C)C(=O)Nc1ccc(-c2ccsc2)c2ccccc12 [CBK083758] | 92.7
COCCN(Cc1cc2ccc(C)cc2nc1O)S(=O)(=O)c1ccccc1 [CBK269216] | 99.6
Cc1nn2c(COc3ccc(NC(=O)C4CCCCC4)cc3)nnc2c2ccccc12 [CBK268528] | 104

Same assay, conditions: human, hela cells, % viability, bulk resorufin, single well

SMILES | viability at 28.5 h, 10 µM [%]
CCOC(=O)N1CCC2(CC1)Oc1ccc(-c3cccc4ncccc34)cc1O2 [CBK085454] | 99.8
